Data reported in patent US8785457B2 (Cellzome Limited, priority 2009, dated 2014).

What follows are compounds tested on Akt serine-473 phosphorylation (assay: In vitro Phospho-Akt cellular assay (pAkt S473) in HEK293T/17 cells). Settings: Homo sapiens, 2 hours.
Format: cell-based
Excerpt: Activation of mTOR signaling results in phosphorylation of several downstream targets. In cells, mTOR exists in two different protein complexes. The mTOR Complex-1 (mTORC1) phosphorylates and activates S6 Kinase 1 (S6K1) and S6 Kinase 2 (S6K2) (also known as p70S6K) which then phosphorylate S6 Ribosomal Protein (S6RP) (also known as RPS6)3. S6RP is phosphorylated on serine 235, serine 236, serine 240 and serine 244 by both pS6K1 and pS6K2. The mTOR Complex-2 (mTORC2) phosphorylates AKT on serine 473 which activates the AKT signaling pathway.
The assay measures a test compound's inhibition of S6RP serine-240/244 phosphorylation and inhibition of Akt serine-473 phosphorylation in human embryonic kidney derived HEK293T/17 cells (ATCC CRL-11268).
The HEK293T/17 cell line is maintained in DMEM media (Invitrogen catalogue number 41965-039) supplemented with 10% FCS at 37° C. in a 5% CO2 humidified incubator.
Cells are seeded in 96-well plates at 40,000 cells/well (pS6RP S240/244 assay) or 80,000 cells/well (pAkt S473 assay) in 90 μl growth media (DMEM, 2% FCS). Plates are incubated for 1 hour in a humidified incubator to allow the cells to adhere. Cells are treated with 8 concentrations of test compounds or DMSO alone for controls (final DMSO concentration 0.1%) and incubated at 37° C. for 2 hours. Then 20 μl of 5× concentrated lysis buffer (750 mM NaCl, 100 mM Tris pH7.4, 5 mM ADTA, 5 mM EGTA, 5% Triton X-100) is added, plates are sealed and incubated for 15 minutes at 4° C. with gentle shaking. After cell lysis, 25 μl cell lysate is transferred to a MesoScale plate coated with an antibody to pS6RP Ser240/244 (MesoScale Discovery K150DGD-3) or an antibody to pAkt Ser 473 (MesoScale Discovery K151DGD-3). Plates have been blocked before by incubation with 150 μl MesoScale Discovery Blocking Solution-A for 1 hour at room temperature followed by washing with 150 μl 1× Tris wash buffer per well. After the transfer of the cell lysate to the MSD plate, the pS6RP (or pAkt) protein is captured on the coated antibody by incubation at room temperature for 1 hour with gentle shaking. After the capture step the plate is washed three times with 150 μl of 1× Tris wash buffer per well. Then 25 μl detection antibody conjugated with a Sulfo-Tag is added and incubated for 1 hour at room temperature with gentle shaking. Subsequently the antibody solution is removed and the plate is washed 3 times with 150 μl×Tris wash buffer per well and 150 μl Read buffer is added. The plates are analysed on a MSD 2400 Plate Reader (MesoScale Discovery). Data analysis is performed using nonlinear regression for a sigmoidal dose-response with a variable slope.

| Compound | IC50 |
| --- | --- |
| CC(C)N1Cc2nc(-c3ccc(NC(=O)NC4CC4)cc3F)nc(N3CCOC[C@@H]3C)c2C1 [Example 172, (S)-1-cyclopropyl-3-(3-fluoro-4-(6-isopropyl-4-(3-methylmorpholino)-6,7-dihydro-5H-pyrrolo[3,4-d]pyrimidin-2-yl)phenyl)urea] | 0.101 µM |
| CCNC(=O)Nc1ccc(-c2nc3c(c(N4CCOC[C@@H]4C)n2)CCN(C(=O)C2CC2)C3)cc1 [Example 56, (S)-1-(4-(7-(cyclopropanecarbonyl)-4-(3-methylmorpholino)-5,6,7,8-tetrahydropyrido[3,4-d]pyrimidin-2-yl)phenyl)-3-ethylurea] | 0.019 µM |
| CCNC(=O)Nc1ccc(-c2nc3c(c(N4CCOC[C@@H]4C)n2)CN(C(=O)C(C)(C)C)C3)cc1 [Example 22, (S)-1-ethyl-3-(4-(4-(3-methylmorpholino)-6-pivaloyl-6,7-dihydro-5H-pyrrolo[3,4-d]pyrimidin-2-yl)phenyl)urea] | 0.029 µM |
| CN1Cc2nc(-c3ccc(NC(=O)NC4CC4)cc3F)nc(N3CCOCC3)c2C1 [Example 159, 1-(Cyclopropyl)-3-(3-fluoro-4-(6-methyl-4-morpholino-6,7-dihydro-5H-pyrrolo[3,4-d]pyrimidin-2-yl)phenyl)urea] | 0.314 µM |
| COC(=O)N1Cc2nc(-c3ccc(NC(=O)NC4CC4)cc3F)nc(N3CCOCC3)c2C1 [Example 173, Methyl 2-(4-(3-cyclopropylureido)-2-fluorophenyl)-4-morpholino-5H-pyrrolo[3,4-d]pyrimidine-6(7H)-carboxylate] | 0.049 µM |
| CCNC(=O)Nc1ccc(-c2nc3c(c(N4CCOCC4)n2)CN(C(=O)OCC)C3)c(F)c1 [Example 151, Ethyl 2-(4-(3-ethylureido)-2-fluorophenyl)-4-morpholino-5H-pyrrolo[3,4-d]pyrimidine-6(7H)-carboxylate] | 0.107 µM |
| CCOC(=O)N1Cc2nc(-c3ccc(NC(=O)NCCF)cc3F)nc(N3CCOCC3)c2C1 [Example 170, ethyl 2-(2-fluoro-4-(3-(2-fluoroethyl)ureido)phenyl)-4-morpholino-5H-pyrrolo[3,4-d]pyrimidine-6(7H)-carboxylate] | 0.054 µM |
| CC(C)N1CCc2c(nc(-c3ccc(NC(=O)NC4CC4)cc3)nc2N2CCOC[C@@H]2C)C1 [Example 43, (S)-1-cyclopropyl-3-(4-(7-isopropyl-4-(3-methylmorpholino)-5,6,7,8-tetrahydropyrido[3,4-d]pyrimidin-2-yl)phenyl)urea] | 0.035 µM |
| C[C@H]1COCCN1c1nc(-c2ccc(NC(=O)NC3CC3)cc2F)nc2c1CN(C(=O)N(C)C)C2 [Example 178, (S)-2-(4-(3-cyclopropylureido)-2-fluorophenyl)-N,N-dimethyl-4-(3-methylmorpholino)-5H-pyrrolo[3,4-d]pyrimidine-6(7H)-carboxamide] | 0.052 µM |
| CCNC(=O)Nc1ccc(-c2nc3c(c(N4CCOC[C@@H]4C)n2)CCN(C)C3)cc1 [Example 35, (S)-1-ethyl-3-(4-(7-methyl-4-(3-methylmorpholino)-5,6,7,8-tetrahydropyrido[3,4-d]pyrimidin-2-yl)phenyl)urea] | 0.014 µM |
| CCNC(=O)Nc1ccc(-c2nc3c(c(N4CCOC[C@@H]4C)n2)CN(C(=O)OC)C3)c(F)c1 [Example 152, (S)-methyl 2-(4-(3-ethylureido)-2-fluorophenyl)-4-(3-methylmorpholino)-5H-pyrrolo[3,4-d]pyrimidine-6-(7H)-carboxylate] | 0.049 µM |
| CCOC(=O)N1Cc2nc(-c3ccc(NC(=O)NC4CC4)cc3F)nc(N3CCOC[C@H]3C)c2C1 [Example 179, (R)-ethyl 2-(4-(3-cyclopropylureido)-2-fluorophenyl)-4-(3-methylmorpholino)-5H-pyrrolo[3,4-d]pyrimidine-6(7H)-carboxylate] | 0.031 µM |
| CCNC(=O)Nc1ccc(-c2nc3c(c(N4CCOCC4)n2)CN(C(=O)OC)C3)c(F)c1 [Example 162, methyl 2-(4-(3-ethylureido)-2-fluorophenyl)-4-morpholino-5H-pyrrolo[3,4-d]pyrimidine-6(7H)-carboxylate] | 0.085 µM |
